Laboratory results from US12448371B2, “Inhibitor compounds” (Cincera Therapeutics Pty Ltd, priority 2019, dated 2025).
Like-named read-outs stand apart in the source and are kept apart here.

Key:
[1] = test system: TGF-β1-mediated αSMA expression; assay: Fibroblast-to-Myofibroblast Transition (FMT) in human lung cells derived from IPF patient donors; format: cell-based; details: primary human bronchial fibroblasts from IPF donors; 8 concentrations up to 10 μM; FIG. 2
Method: Fibroblast-to-Myofibroblast Transition (FMT) in Human Lung Cells Derived from Idiopathic Pulmonary Fibrosis (IPF) Patient Donors
Lung-derived primary human bronchial fibroblasts (from IPF donors) were seeded at 3,000 cells per well in 96-well plates, and were grown over 5 days prior to treatment with the desired compounds (cell medium was refreshed at 48 h). Cells were then treated with 8 different concentrations of Compound 8 or 46, in semi-log dilutions starting from the top dosage of 10 μM (vehicle control: 0.1% DMSO; positive control: SB525334 and nintendanib). 1-hour post compound addition, the cells were stimulated with the addition of 1.25 ng/mL TGF-β1, and incubated for 72 hours. Cells were then fixed with 4% formaldehyde, then stained using […] and imaged via high-content analysis. The assay was conducted in biological duplicates. This in vitro FMT assay results were provided by Charles River Laboratories through a service agreement.

[2] = test system: Connective Tissue Growth Factor (CTGF) gene expression; assay: Real time quantitative PCR in TGFβ-stimulated human hepatic stellate cells (LX2) to detect CTGF gene expression; format: cell-based; details: CTGF mRNA in TGFβ-stimulated LX2 cells vs vehicle control; for inhibition at 5 µM: LX-2, 5 μM; for inhibition at 1 µM: LX-2, 1 μM; for inhibition at 10 µM: LX-2, 10 μM
Method: Real Time Quantitative Polymerase Chain Reaction in Human Hepatic Stellate Cells (LX2) to Detect Connective Tissue Growth Factor (CTGF) Gene Expression The hepatic stellate cell line, LX2 was maintained in DMEM (LifeTechnologies) with 2% heat-inactivated FBS, 100U penicillin (LifeTechnologies), 0.1 mg/mL streptomycin (LifeTechnologies), and 2 mM L-glutamine (LifeTechnologies) at 37° C. with 5% CO2. Cells were seeded into 6-well plates (200,000 cells per well, 2 mLs media) and grown overnight. The cells were changed to 2 mLs 0.5% FBS media for 24 hours prior to treatment. Treatments were added in 2 mLs fresh 0.5% FBS media (vehicle control, long/mL TGFβ alone (R&D Systems), 10 ng/mL TGFβ+inhibitors) and incubated for 24 hours. […] RNA was extracted using Qiagen RNeasy kit (cat #74104), according to manufacturer's instructions. RNA (1 μg) was used to generate cDNA using the Qiagen Quantitect Reverse Transcription Kit (cat #205311), and stored at -20° C. cDNA was diluted (1:25 final) and combined with Sybr Green (Qiagen cat #204143), forward and reverse primers (50 ng each) and run on Real Time PCR Thermocycler machine (RG-6000, Corbett) with the following PCR conditions: Hold 1: 50° C. for 2 min; Hold 2: 95° C. for 15 min; Cycling: 45 cycles of: 95° C. for 30 sec, 58° C. for 21 sec, 72° C. for 15 sec, Hold 3: 72° C. for 30 sec, Melt: 72° C. to 99° C. GAPDH primers (Forward: [NT]; Reverse: [NT] primers (Forward: [NT]; Reverse: [NT] primers available from Origene, cat #HP205671)].

Des1 (h) = molecular target: T1, Des1 (h) (Homo sapiens, UniProt O15121); assay: Measurement of Dihydroceramide Desaturase-1 (Des-1) activity in intact Jurkat cells labeled with DhCer-C6-NBD (HPLC); format: cell-based
T1 construct: endogenous in cells; host or cells: parental Jurkat cells
T1 sequence (O15121 1-323): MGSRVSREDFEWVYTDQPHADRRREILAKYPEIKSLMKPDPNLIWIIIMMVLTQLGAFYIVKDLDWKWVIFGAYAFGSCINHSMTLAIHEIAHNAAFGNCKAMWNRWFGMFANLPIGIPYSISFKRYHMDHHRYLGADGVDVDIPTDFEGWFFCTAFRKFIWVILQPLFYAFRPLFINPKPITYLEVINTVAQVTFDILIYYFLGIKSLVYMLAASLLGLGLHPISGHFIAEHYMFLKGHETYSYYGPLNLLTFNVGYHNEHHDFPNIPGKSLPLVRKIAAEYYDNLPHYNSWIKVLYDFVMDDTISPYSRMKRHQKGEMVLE
Summary of the method: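 Intact parental Jurkat cells in 0.5% serum medium were labelled with DhCer-C6-NBD; cells harvested at 500×g and ceramides extracted. NBD-labelled substrate and product resolved by C18 reverse-phase HPLC and quantified by fluorescence (ex 465/em 530 nm) as a measure of Des-1 activity.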

[3] = T1/2 Human Liver Microsomes; format: in vitro ADME
Excerpt: Some non-limiting illustrative examples are presented below in Table 3-1.

[4] = intact Jurkat cells, given as concentration range, or <X / >X if measured at one concentration X only, read-out: Des1 (h) Jurkat IC50
[5] = Table 3-1, comparison of W ring with and without nitrogen, read-out: Des1 IC50

Row | IC50 (Des1 (h); [4]) [µM] | IC50 (Des1 (h); [5]) [µM] | half-life [3] [h] | SMILES | inhibition at 5 µM [2] [%] | other results
1 | 0.1 to 1 | – | – | N=C(NO)c1ccc(Nc2ncc(-c3ccc(C(F)(F)F)cc3)o2)cn1 [Example 8, 5-((5-[4-(Trifluoromethyl)phenyl]-1,3-oxazol-2-yl)amino)-N-hydroxy-pyridine-2-carboximidamide] | > 90 | inhibition of TGF-β1-mediated αSMA expression in IPF donors [1]: concentration-dependent inhibition
2 | – | 0.001 to 0.01 | 3.5 to 3.67 | O=C(NCC(O)CO)c1ccc(Nc2ncc(-c3ccc(C(F)(F)F)cc3)o2)cn1 (centres unmarked) | – | –
3 | – | 0.1 to 0.2 | 1.5 to 1.67 | N=C(NO)c1ccc(Nc2ncc(-c3ccc(C(F)(F)F)cc3)o2)cn1 [drawing 414] | – | –
4 | – | 0.8 to 1 | 0.5 to 0.667 | N=C(NO)c1ccc(Nc2ncc(-c3ccc(C(F)(F)F)cc3)o2)cc1 | – | –
5 | 0.001 to 0.01 | – | – | O=c1cc(Nc2ncc(-c3ccc(C(F)(F)F)cc3)o2)ccn1O [Example 23, 1-(Hydroxy)-4-((5-(4-(trifluoromethyl)phenyl)oxazol-2-yl)amino)pyridin-2(1H)-one] | – | inhibition at 1 µM [2]: 30 to 40%; inhibition at 10 µM [2]: > 90%
6 | < 1 | – | – | N/C(=N\O)c1ncc(Nc2ncc(-c3ccc(C(F)(F)F)cc3)o2)cn1 [Example 55, N′-Hydroxy-5-((5-(4-(trifluoromethyl)phenyl)oxazol-2-yl)amino)pyrimidine-2-carboximidamide] | – | inhibition at 1 µM [2]: 20 to 30%; inhibition at 10 µM [2]: 40 to 50%

The remaining lines, values behind:

Row | SMILES | IC50 (Des1 (h); [4]) [µM] | IC50 (Des1 (h); [5]) [µM] | half-life [3] [h] | inhibition at 5 µM [2] [%] | other results
7 | N=C(NO)c1ccc(Nc2ncc(-c3ccc(C(F)(F)F)cn3)o2)cn1 [Example 46, N′-hydroxy-5-((5-(5-(trifluoromethyl)pyridin-2-yl)oxazol-2-yl)amino)-picolinimidamide] | 0.1 to 1 | – | – | > 90 | inhibition of TGF-β1-mediated αSMA expression in IPF donors [1]: concentration-dependent inhibition
8 | N/C(=N\O)c1ccc(Nc2ncc(-c3ccc(C(F)(F)F)cc3)o2)nn1 [drawing 418] | – | 0.001 to 0.01 | 2.5 to 2.83 | – | –
9 | N/C(=N\O)c1ccc(Nc2ncn(-c3ccc(C(F)(F)F)cc3)n2)cn1 [drawing 416] | – | 0.07 to 0.08 | 2.83 to 3 | – | –
10 | N=C(NO)c1ccc(Nc2ncc(-c3ccc(C(F)(F)F)cn3)o2)cn1 [drawing 417] | – | 0.4 to 0.5 | 3.17 to 3.33 | – | –
11 | N/C(=N/O)c1ccc(Nc2cc(-c3ccc(C(F)(F)F)cn3)no2)cn1 [Example 75, N′-Hydroxy-5-((3-(5-(trifluoromethyl)pyridin-2-yl)isoxazol-5-yl)amino)picolinimidamide] | < 1 | – | – | > 90 | –
12 | Cn1nc(Nc2ccc(/C(N)=N/O)nc2)cc1-c1ccc(C(F)(F)F)cn1 [Compound 109, N′-Hydroxy-5-((1-methyl-5-(5-(trifluoromethyl)pyridin-2-yl)-1H-pyrazol-3-yl)amino)picolinimidamide] | < 1 | – | – | > 90 | –
13 | N/C(=N\O)c1ccc(Nc2ncc(-c3ccc(C4CC4)cc3)o2)cn1 [Compound 120, 5-((5-(4-Cyclopropylphenyl)oxazol-2-yl)amino)-N′-hydroxypicolinimidamide] | > 1 | – | – | – | inhibition at 1 µM [2]: 40 to 50%; inhibition at 10 µM [2]: 40 to 50%; inhibition at 1 µM (Des1 (h); Jurkat cells, 1 μM): 10%
